Laboratory results: ChEMBL document CHEMBL1128812, “Synthesis and porcine pancreatic elastase inhibitory evaluation of 6-(sulfonyl)oxy-and 6-chloropenicillanate sulfone esters and 3-(acyloxy)methyl-6-chloropenam sulfones” (Bioorg Med Chem Lett, 1995)
Where “and” joins values, the source holds several entries; their conditions need not be identical. Equal entries are not always repeated.

Target: T1, Chymotrypsin-like elastase family member 2A (Sus scrofa) (UniProt P08419)
T1 sequence (whole entry): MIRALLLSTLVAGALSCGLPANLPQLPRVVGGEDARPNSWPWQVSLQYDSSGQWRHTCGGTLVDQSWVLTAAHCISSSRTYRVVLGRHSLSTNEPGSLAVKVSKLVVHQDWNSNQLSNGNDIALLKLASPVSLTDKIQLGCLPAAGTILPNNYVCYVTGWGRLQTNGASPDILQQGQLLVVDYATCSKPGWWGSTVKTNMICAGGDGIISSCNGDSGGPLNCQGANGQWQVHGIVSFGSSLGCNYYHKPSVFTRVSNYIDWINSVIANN
Assay: Compound was tested in vitro for its ability to inhibit Pancreatic elastase catalyzed hydrolysis of substrate with 10 min pre-incubation

In the case of `COC(=O)[C@@H]1N2C(=O)[C@@H](Cl)[C@H]2S(=O)(=O)C1(C)C`, the inhibition is reported as 44% and 40%.
